Measured values as given in patent publication US9428506B2, “Substituted pyrido[3′,4′:4,5]pyrrolo[1,2,3-de]quinoxalines for the treatment of nervous system disorders” (INTRA-CELLULAR THERAPIES, INC., priority 2012, dated 2016).

Legend:
SERT = SERT (Homo sapiens, UniProt P31645); assay: Receptor binding activity, SERT; conditions: binding to SERT, methods of WO/2009/145900
Method: (§1) Binding to 5HT2A, D2 and SERT is assessed, using the methods described in WO/2009/145900. The compounds of Examples 1 and 2 are found to have potent binding to 5-HT2A, SERT and D2, with affinity constants in the sub-micromolar range: […]

D2 = D2 (Homo sapiens, UniProt P14416); assay: Receptor binding activity, D2; conditions: binding to D2, methods of WO/2009/145900
Method: as §1

5-HT2A = 5-HT2A (Homo sapiens, UniProt P28223); assay: Receptor binding activity, 5-HT2A; conditions: binding to 5-HT2A, methods of WO/2009/145900
Method: as §1

Chain of 5-HT2A (P28223 whole entry, species assumed): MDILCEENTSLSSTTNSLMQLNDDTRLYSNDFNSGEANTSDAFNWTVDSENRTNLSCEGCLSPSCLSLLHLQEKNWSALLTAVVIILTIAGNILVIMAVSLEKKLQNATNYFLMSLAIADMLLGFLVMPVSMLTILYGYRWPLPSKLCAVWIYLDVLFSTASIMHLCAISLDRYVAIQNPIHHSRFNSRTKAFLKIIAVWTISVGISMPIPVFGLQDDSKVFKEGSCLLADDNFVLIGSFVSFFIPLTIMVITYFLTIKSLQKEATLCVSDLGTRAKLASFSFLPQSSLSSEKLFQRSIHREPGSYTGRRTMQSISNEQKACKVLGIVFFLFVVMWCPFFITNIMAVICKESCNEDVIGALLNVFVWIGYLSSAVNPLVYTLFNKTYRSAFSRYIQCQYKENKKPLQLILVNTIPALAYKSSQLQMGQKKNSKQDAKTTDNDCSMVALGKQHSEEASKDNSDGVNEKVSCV
Chain of SERT (P31645 whole entry, species assumed): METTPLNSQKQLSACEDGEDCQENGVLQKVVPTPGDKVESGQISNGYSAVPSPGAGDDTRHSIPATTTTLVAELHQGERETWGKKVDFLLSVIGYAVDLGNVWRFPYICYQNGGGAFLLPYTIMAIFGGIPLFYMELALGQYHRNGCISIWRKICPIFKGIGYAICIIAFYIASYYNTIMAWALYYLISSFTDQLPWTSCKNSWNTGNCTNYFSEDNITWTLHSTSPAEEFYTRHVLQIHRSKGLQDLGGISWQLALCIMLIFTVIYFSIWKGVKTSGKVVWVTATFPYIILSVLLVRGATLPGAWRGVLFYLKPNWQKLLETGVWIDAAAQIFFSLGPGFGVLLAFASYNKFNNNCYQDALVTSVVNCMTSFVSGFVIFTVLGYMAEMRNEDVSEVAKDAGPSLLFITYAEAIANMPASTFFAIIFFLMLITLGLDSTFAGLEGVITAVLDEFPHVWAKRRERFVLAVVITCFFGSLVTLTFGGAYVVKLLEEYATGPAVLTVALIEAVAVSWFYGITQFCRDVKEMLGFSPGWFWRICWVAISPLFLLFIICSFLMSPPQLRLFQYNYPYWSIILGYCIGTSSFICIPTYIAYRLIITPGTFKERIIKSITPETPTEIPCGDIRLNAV
Chain of D2 (P14416 whole entry): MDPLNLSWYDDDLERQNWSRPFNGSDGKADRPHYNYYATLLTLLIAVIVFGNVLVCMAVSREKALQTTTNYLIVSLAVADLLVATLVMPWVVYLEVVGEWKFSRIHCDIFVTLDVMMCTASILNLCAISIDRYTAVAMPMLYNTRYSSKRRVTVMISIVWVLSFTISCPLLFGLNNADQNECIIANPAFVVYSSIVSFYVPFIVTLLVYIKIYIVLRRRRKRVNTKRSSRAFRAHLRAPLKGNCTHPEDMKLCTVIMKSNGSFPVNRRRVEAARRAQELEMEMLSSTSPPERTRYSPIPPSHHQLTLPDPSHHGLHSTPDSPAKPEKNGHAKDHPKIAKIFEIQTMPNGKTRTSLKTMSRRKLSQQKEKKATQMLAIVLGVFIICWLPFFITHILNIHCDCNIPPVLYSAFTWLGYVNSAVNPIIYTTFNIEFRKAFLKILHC

Compound | Ki (SERT) | Ki (D2) | Ki (5-HT2A)
COC(CCCN1CC[C@H]2[C@@H](C1)c1cccc3c1N2CCN3C)c1ccc(F)cc1 (stereo partly drawn) [Ex. 2, (6bR,10aS)-8-[4-(4-Fluoro-phenyl)-4-methoxy-butyl]-3-methyl-2,3,6b,7,8,9,10,10a-octahydro-1H-pyrido[3′,4′:4,5]pyrrolo[1,2,3-de]quinoxaline] | 300 nM | 810 nM | 96 nM
CN1CCN2c3c(cccc31)[C@@H]1CN(CCCC(C)(O)c3ccc(F)cc3)CC[C@@H]12 (stereo partly drawn) [Ex. 1, 2-(4-Fluoro-phenyl)-5-((6bR,10aS)-3-methyl-2,3,6b,9,10,10a-hexahydro-1H,7H-pyrido[3′,4′:4,5]pyrrolo[1,2,3-de]quinoxalin-8-yl)-pentan-2-ol] | 520 nM | 740 nM | 350 nM
